Measurements reported in article PMC6209519 (Organic & biomolecular chemistry, 2018).

How the values were obtained:
chymotrypsin = assay: Enzymatic hydrolysis assay with chymotrypsin; format: in vitro ADME; conditions: isolated enzyme chymotrypsin
HIV-1 = conditions: across the strains tested, compared with 1

Substance	IC50 (HIV-1 CZA97)	IC50 (HIV-1 DU422)	IC50 (HIV-1 MN)	IC50 (HIV-1 SF162)	% remaining after 10 mins (chymotrypsin)	increase in antiviral activity relative to peptide 1 (HIV-1)
Enfuvirtide	941 ± 328 nM	56 ± 1.6 nM	6.5 ± 0.6 nM	23.9 ± 2.1 nM	–	–
MTWEEWDKKIEEYTKKIEELIγKS [Peptide 3]	–	–	–	–	17.6%	< 2 fold
MTWXEWDXKIEEYTKKIEELIγKS (sidechain bridge or staple) [Peptide 4]	–	–	–	–	57.2%	–
